Measurements published in article PMC5400565, “Real-time near-infrared fluorescence imaging using cRGD-ZW800-1 for intraoperative visualization of multiple cancer types” (Oncotarget, 2017).

How the values were obtained:
[1] = biological target: T1, 5-HT transporter (Homo sapiens, UniProt P31645); assay: Off-target screening (Eurofins Cerep), 5-HT transporter; type: binding
T1 construct: Eurofins Cerep SA (contract screen)

[2] = tested on: orthotopic HT-29 colon tumors; assay: In vivo competition, orthotopic HT-29 model; set-up: species or system mice
Protocol: All animals were imaged using a Pearl® imager (LI-COR, Lincoln, NE) and an original FLARE® prototype. Animals with HT-29 tumors were imaged at 4 and 24 h post injection; animals with BxPC-3 and OSC-19 tumors at 4 h only. Animals with MCF-7 tumors were imaged at 0.5, 1, 2, 4, 6, 8, 24 and 48 h post injection. The specific and control images were normalized and regions of interest (ROIs) were selected using associated software. TBRs were calculated by dividing the tumor signal by the background signal. Based on our experience a TBR ≥ 2 is sufficient to discriminate between tumor and surrounding tissue.
The binding specificity of cRGD-ZW800-1 was explored in a competition experiment using an excess of unlabeled cRGD (200-fold excess) co-injected with a standard dose of 10 nmol cRGD-ZW800-1 (n = 4). Simultaneously, mice (n = 3) were injected with 10 nmol cRGD-ZW800-1 as positive control. All mice had orthotopic HT-29 colon tumors. Images were acquired at 4 and 24 h post-injection after which animals were sacrificed and organs were resected and scanned with Pearl®.

[3] = biological target: Ca2+ channel (L, dihydropyridine site) (Rattus norvegicus, UniProt P22002); assay: Off-target screening (Eurofins Cerep), Ca2+ channel; type: binding
From the text: (§1) Off-target interactions are binding of tracers to other components on the cell surface than the actual target site. These non-specific interactions are often of low affinity and easily missed, but can have significant effects. We outsourced the screening for in vitro for off-target interactions of cRGD-ZW800-1 to Eurofins Cerep SA, Le bois l’Evêque, France. They assessed the percentage of inhibition of a reference compound in 44 selected targets, including G protein-coupled receptors (GPCRs), transporters, ion channels, nuclear receptors, kinases and other non-kinase enzymes. These targets were recommended by four major pharmaceutical companies. The complete list is included in Supplementary Table 1 of the Supplementary Data. Each assay was performed twice using 10 μM cRGD-ZW800-1 and a reference compound. Inhibition higher than 50% was considered to represent a significant effect of cRGD-ZW800-1. Results showing between 20% and 50% were considered weak to moderate effects, while lower than 20% was not considered significant and mostly attributable to variability of the signal around the control level.

[4] = Toxicology study in rats (unpublished data)
[5] = tested on: tumors; assay: Estimated concentration inside tumors in humans; details: after administering 63 μg/kg, assuming tumor uptake comparable to RGD-PET tracer
[6] = biological target: T2, Opioid δ (DOP) (Homo sapiens, UniProt P41143); assay: Off-target screening (Eurofins Cerep), δ (DOP); type: binding
T2 construct: Eurofins Cerep SA (contract screening)

[7] = biological target: T3, Serotonin 5-HT1B (Rattus norvegicus, UniProt P28564); assay: Off-target screening (Eurofins Cerep), 5-HT1B; type: binding
T3 construct: Eurofins Cerep SA (contract screening)

[8] = biological target: T4, 5-hydroxytryptamine (serotonin) receptor 2B (5-HT2B) (Homo sapiens, UniProt P41595); assay: Off-target screening (Eurofins Cerep), 5-HT2B; type: binding
T4 construct: Eurofins Cerep SA (contract screening)
From the text: as §1

[9] = biological target: T5, Cannabinoid CB1 (Homo sapiens, UniProt P21554); assay: Off-target screening (Eurofins Cerep), CB1; type: binding
T5 construct: Eurofins Cerep SA (contract screening)

[10] = tested on: BxPC-3 tumors and organs; assay: Ex vivo biodistribution, BxPC-3 model; type: in vivo, mice; details: 4 h post injection
Protocol: After imaging, mice were sacrificed and OSC-19 and BxPC-3 tumors were quickly frozen in isopentane at -80°C for histological evaluation. Tissues were sectioned at 10 μm and fluorescence imaging was performed using fluorescence microscopy (Nikon eclipse e800, Nikon, Amsterdam, The Netherlands). All histologic sections were stained with standard hematoxylin-eosin stain (HE). Organs of mice with colorectal and pancreatic cancer were collected and imaged using the Pearl® to evaluate biodistribution.
(§2) Mice were administered with 0.25 (HT-29 model only), 1.0, 10, or 30 nmol cRGD-ZW800-1 to evaluate tumor signals, biodistribution, and to calculate TBRs (n = 3 per dose group). At 4 h (BxPC-3 model) and 24 h (HT-29 model) after injection, mice were fully dissected and fluorescence intensity of their organs was measured.
Mice bearing orthotopic OSC-19 tumors (n = 2) were administrated with 10 nmol cRGD-ZW800-1 and imaged at 4 h. Mice bearing orthotopic MCF-7 tumors (n = 2) were injected with 10 nmol cRGD-ZW800-1 and imaged at 0.5, 1, 2, 4, 6, 8, 24, and 48 h post injection. One mouse with 2 MCF-7 tumors was administered with 10 nmol cRGD-ZW800-1 and imaged at 4 h post injection while its skin was partially removed. In vivo TBRs were calculated by dividing the mean fluorescence signals of tumors by the mean of surrounding tissue. Ex vivo organ-to-tumor ratios were calculated by dividing the fluorescence intensity of the organ by that of the tumor.

[11] = tested on: HT-29 colorectal tumors; assay: NIR fluorescence imaging, HT-29 colorectal tumors, dose-ranging; type: in vivo, mice
Protocol: To induce subcutaneous tumors, colorectal cancer cells (HT-29) were injected at 4 sites on the back (500,000 cells per spot). Subsequently, these colorectal tumor cells were transplanted on the colon of other mice, as described by Tseng et al.. Approximately 500,000 pancreatic tumor cells (BxPC-3) were injected into the pancreas, as previously described by Kim et al.. Approximately 40,000 oral tumor cells (OSC-19) were injected in the tongue, as previously described by van Driel et al.. Approximately 500,000 breast tumor cells (MCF-7) were injected in both sides of the mammary fat pad to induce breast cancer tumors.
All animals were imaged using a Pearl® imager (LI-COR, Lincoln, NE) and an original FLARE® prototype. Animals with HT-29 tumors were imaged at 4 and 24 h post injection; animals with BxPC-3 and OSC-19 tumors at 4 h only. Animals with MCF-7 tumors were imaged at 0.5, 1, 2, 4, 6, 8, 24 and 48 h post injection. […] TBRs were calculated by dividing the tumor signal by the background signal. […]
as §2

[12] = biological target: T6, GR (steroid nuclear receptor) (Homo sapiens, UniProt P04150); assay: Off-target screening (Eurofins Cerep), GR; type: binding
T6 construct: Eurofins Cerep SA (contract screen)

[13] = 10 μM, mean of 2, read-out: % of Control Specific Binding Mean
[14] = 10 μM cRGD-ZW800-1, format H, Ag, performed twice, read-out: % Inhibition of Control Specific Binding

T6 sequence (P04150 whole entry): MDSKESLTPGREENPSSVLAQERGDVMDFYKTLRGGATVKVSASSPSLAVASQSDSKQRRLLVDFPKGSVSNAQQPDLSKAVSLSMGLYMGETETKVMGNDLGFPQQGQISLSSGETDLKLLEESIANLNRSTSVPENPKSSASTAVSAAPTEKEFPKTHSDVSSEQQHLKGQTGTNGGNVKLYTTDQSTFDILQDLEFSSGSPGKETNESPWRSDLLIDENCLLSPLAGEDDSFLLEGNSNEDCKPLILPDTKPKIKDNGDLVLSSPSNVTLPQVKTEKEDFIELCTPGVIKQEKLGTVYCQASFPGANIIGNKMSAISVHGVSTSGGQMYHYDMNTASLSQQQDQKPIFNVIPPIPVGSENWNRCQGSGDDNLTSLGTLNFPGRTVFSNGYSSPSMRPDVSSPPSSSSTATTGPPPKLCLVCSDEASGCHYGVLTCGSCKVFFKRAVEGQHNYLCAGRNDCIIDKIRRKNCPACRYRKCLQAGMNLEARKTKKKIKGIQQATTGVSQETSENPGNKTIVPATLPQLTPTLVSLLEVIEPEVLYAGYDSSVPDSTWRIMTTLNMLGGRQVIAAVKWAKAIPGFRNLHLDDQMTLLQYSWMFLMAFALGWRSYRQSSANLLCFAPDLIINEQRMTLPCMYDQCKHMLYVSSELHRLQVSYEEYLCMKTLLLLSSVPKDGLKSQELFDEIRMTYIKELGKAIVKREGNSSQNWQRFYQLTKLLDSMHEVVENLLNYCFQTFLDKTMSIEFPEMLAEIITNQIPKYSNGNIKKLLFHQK
T2 sequence (P41143 whole entry): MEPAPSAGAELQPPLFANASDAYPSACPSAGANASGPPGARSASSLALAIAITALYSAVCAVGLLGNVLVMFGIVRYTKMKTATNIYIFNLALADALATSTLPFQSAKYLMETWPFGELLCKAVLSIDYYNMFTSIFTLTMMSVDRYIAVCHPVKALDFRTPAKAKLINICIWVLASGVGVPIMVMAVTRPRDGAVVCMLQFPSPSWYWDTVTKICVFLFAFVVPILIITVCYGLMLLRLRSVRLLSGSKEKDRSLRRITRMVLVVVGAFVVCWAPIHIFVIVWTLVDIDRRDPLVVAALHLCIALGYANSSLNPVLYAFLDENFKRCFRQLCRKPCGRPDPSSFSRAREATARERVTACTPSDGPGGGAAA
T3 sequence (P28564 whole entry): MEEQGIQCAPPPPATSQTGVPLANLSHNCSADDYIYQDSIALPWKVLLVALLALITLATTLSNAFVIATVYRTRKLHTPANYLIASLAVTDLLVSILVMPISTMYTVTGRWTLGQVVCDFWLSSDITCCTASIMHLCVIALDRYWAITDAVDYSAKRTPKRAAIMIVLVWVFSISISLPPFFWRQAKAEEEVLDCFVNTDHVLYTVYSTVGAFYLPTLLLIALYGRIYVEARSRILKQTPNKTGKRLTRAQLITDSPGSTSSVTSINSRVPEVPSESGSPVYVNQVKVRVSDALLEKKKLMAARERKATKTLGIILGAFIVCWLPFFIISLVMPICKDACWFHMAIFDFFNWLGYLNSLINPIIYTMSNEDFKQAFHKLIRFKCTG
T5 sequence (P21554 whole entry): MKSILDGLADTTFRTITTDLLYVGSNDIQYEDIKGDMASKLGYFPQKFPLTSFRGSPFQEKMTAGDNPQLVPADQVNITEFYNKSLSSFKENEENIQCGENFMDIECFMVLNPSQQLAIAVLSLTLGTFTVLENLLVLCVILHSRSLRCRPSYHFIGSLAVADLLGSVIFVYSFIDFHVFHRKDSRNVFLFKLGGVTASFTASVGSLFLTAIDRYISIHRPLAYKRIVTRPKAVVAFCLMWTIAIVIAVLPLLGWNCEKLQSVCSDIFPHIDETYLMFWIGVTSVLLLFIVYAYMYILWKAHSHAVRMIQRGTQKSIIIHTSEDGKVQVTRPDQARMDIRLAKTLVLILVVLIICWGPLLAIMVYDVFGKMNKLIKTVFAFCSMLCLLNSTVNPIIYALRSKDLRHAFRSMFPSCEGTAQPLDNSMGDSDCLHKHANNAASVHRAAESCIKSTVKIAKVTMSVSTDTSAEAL
T4 sequence (P41595 whole entry): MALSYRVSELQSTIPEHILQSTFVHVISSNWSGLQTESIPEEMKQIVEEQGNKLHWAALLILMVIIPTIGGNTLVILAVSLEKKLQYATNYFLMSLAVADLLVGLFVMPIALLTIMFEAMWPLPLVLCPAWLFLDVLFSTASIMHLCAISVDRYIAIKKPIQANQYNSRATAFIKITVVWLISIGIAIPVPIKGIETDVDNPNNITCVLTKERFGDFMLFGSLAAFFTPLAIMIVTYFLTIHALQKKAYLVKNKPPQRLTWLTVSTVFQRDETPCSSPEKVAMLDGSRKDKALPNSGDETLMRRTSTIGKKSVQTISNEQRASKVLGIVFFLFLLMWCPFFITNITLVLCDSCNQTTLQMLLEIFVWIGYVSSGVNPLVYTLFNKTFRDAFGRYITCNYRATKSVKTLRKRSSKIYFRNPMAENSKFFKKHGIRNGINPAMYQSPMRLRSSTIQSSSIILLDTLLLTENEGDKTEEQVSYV
T1 sequence (P31645 whole entry): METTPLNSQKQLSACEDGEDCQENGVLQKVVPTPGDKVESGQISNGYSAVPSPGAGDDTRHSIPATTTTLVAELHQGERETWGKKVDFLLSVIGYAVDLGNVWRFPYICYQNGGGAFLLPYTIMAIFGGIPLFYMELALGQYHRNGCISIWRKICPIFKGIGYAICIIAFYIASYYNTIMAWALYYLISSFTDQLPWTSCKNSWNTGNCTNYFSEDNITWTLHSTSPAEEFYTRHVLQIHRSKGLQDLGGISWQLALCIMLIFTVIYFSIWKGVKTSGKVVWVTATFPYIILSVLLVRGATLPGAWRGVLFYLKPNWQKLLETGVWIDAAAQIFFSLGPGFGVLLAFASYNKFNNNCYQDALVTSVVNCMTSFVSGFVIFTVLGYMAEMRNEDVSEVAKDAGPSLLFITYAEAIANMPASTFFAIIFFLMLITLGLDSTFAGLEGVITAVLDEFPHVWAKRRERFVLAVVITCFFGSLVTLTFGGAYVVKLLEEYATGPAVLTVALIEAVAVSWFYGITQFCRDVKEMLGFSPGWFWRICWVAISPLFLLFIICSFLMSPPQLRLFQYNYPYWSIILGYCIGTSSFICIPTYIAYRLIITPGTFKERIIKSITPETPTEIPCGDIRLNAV

SMILES: CC1(C)C(/C=C/C2=C(Oc3ccc(CCC(=O)NCCCC[C@@H]4NC(=O)[C@@H](Cc5ccc(O)cc5)NC(=O)[C@H](CC(=O)O)NC(=O)CNC(=O)[C@H](CCCNC(=N)N)NC4=O)cc3)C(=C/C=C3/N(CCC[N+](C)(C)C)c4ccc(S(=O)(=O)O)cc4C3(C)C)/CCC2)=[N+](CCC[N+](C)(C)C)c2ccc(S(=O)(=O)O)cc21 [cRGD-ZW800-1]
- inhibition at 10 µM ([1]; 10 μM cRGD-ZW800-1, format H, An, performed twice, read-out: % Inhibition of Control Specific Binding): -3%
- remaining activity at 10 µM [1, 13]: 103%
- TBR at 4 h, control ([2]; 10 nmol cRGD-ZW800-1 alone, n = 3, healthy colon as background, mean ± SD): 3.2 ± 0.5
- TBR at 4 h, with unlabeled cRGD ([2]; 10 nmol cRGD-ZW800-1 co-injected with 2.0 μmol unlabeled cRGD (200-fold), n = 4, mean ± SD): 1.8 ± 0.4
- inhibition at 10 µM ([3]; Ca2+ channel (L, dihydropyridine site), 10 μM cRGD-ZW800-1, format An, performed twice, read-out: % Inhibition of Control Specific Binding): 15%
- remaining activity at 10 µM ([3]; Ca2+ channel, 10 μM, mean of 2, read-out: % of Control Specific Binding Mean): 84.6%
- safe starting dose for first in-human studies ([4]; 10% of the HED of the NOAEL (FDA recommendation)): 0.08 mg/kg
- human equivalent dose (HED) of the NOAEL ([4]; NOAEL of 5.0 mg/kg in rats adjusted for body surface area): 0.80 mg/kg
- toxicology findings ([4]; rats, intravenous injection of 5.0 mg/kg, unpublished data): neither clinical symptoms, nor treatment-related histopathological, biochemical, and hematological abnormalities
- no observable adverse event level (NOAEL) ([4]; rats, intravenous injection, unpublished data): at least 5.0 mg/kg
- concentration inside tumors [5]: approximately 0.2 μM
- inhibition at 10 µM [6, 14]: 14%
- remaining activity at 10 µM [6, 13]: 85.5%
- inhibition at 10 µM ([7]; 10 μM cRGD-ZW800-1, format An, performed twice, read-out: % Inhibition of Control Specific Binding): 1%
- remaining activity at 10 µM [7, 13]: 99.1%
- inhibition at 10 µM [8, 14]: 29%
- remaining activity at 10 µM [8, 13]: 70.9%
- inhibition at 10 µM [9, 14]: -6%
- remaining activity at 10 µM [9, 13]: 106%
- tumor fluorescence relative to skin, intestines, lungs, muscle, gallbladder, brain, and blood ([10]; all doses, ex vivo, Pearl): at least twice as fluorescent
- fluorescence signals in kidneys relative to tumors ([10]; ex vivo): equal to or higher than tumors
- fluorescence ratios of large intestines and liver compared with tumors ([10]; ex vivo organ-to-tumor ratio): around half
- TBRs at 4 and 24 h post injection ([11]; HT-29, 1, 10 and 30 nmol dose groups, n = 3 per dose group): > 2
- optimal dose ([11]; mice, doses of 0.25, 1.0, 10, 30 nmol explored, Pearl and FLARE): 10 nmol
- inhibition at 10 µM [12, 14]: 10%
- remaining activity at 10 µM [12, 13]: 89.9%
